Results from ChEMBL document CHEMBL1201862, “PubChem BioAssay data set” (2004).
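Grown in 96-well plates, cells were treated for 48 hours with each compound at five concentrations. Insufficient inhibition: endpoint recorded as highest concentration tested. GI50 is the concentration that inhibits growth by half.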 Calls of active or inactive are those of the source. Rule as the data show it: active = GI50 up to about 1.1 µM and inactive = higher.

How the values were obtained:
Assay in all cases: NCI tumour cell line growth inhibition, 48 h
786-0 = test system: 786-0
A498 = test system: A498
A549 = test system: A549
ACHN = test system: ACHN
CAKI-1 = test system: CAKI-1
CCRF-CEM = test system: CCRF-CEM
COLO 205 = test system: COLO 205
DU-145 = test system: DU-145
EKVX = test system: EKVX
HCC 2998 = test system: HCC 2998
HCT-116 = test system: HCT-116
HCT-15 = test system: HCT-15
HL-60 = test system: HL-60
HOP-62 = test system: HOP-62
HOP-92 = test system: HOP-92
HT-29 = test system: HT-29
Hs-578T = test system: Hs-578T
IGROV-1 = test system: IGROV-1
K562 = test system: K562
M14 = test system: M14
MCF7 = test system: MCF7
MDA-MB-231 = test system: MDA-MB-231
MDA-MB-435 = test system: MDA-MB-435
MDA-N = test system: MDA-N
MOLT-4 = test system: MOLT-4
Malme-3M = test system: Malme-3M
NCI-H226 = test system: NCI-H226
NCI-H23 = test system: NCI-H23
NCI-H460 = test system: NCI-H460
NCI-H522 = test system: NCI-H522
NCI/ADR-RES = test system: NCI/ADR-RES
OVCAR-3 = test system: OVCAR-3
OVCAR-4 = test system: OVCAR-4
OVCAR-5 = test system: OVCAR-5
OVCAR-8 = test system: OVCAR-8
PC-3 = test system: PC-3
RPMI-8226 = test system: RPMI-8226
RXF 393 = test system: RXF 393
SF-268 = test system: SF-268
SF-295 = test system: SF-295
SF-539 = test system: SF-539
SK-MEL-28 = test system: SK-MEL-28
SK-MEL-2 = test system: SK-MEL-2
SK-MEL-5 = test system: SK-MEL-5
SK-OV-3 = test system: SK-OV-3
SN12C = test system: SN12C
SNB-19 = test system: SNB-19
SNB-75 = test system: SNB-75
SR = test system: SR
SW-620 = test system: SW-620
T47D = test system: T47D
U-251 = test system: U-251
UACC-257 = test system: UACC-257
UACC-62 = test system: UACC-62
UO-31 = test system: UO-31
BT-549 = test system: BT-549
KM12 = test system: KM12
LOX IMVI = test system: LOX IMVI
TK-10 = test system: TK-10

Measured: GI50

O=C(O)c1ccc(CI)cc1
inactive: 786-0 3.24 µM | A498 20.8 µM | A549 17.6 µM | ACHN 15.7 µM | CAKI-1 13.7 µM | CCRF-CEM 9.57 µM | COLO 205 15.4 µM | DU-145 18.4 µM | EKVX 19.5 µM | HCC 2998 18 µM | HCT-116 14.5 µM | HL-60 20.8 µM | HOP-62 20.3 µM | HOP-92 15.8 µM | HT-29 15.1 µM | Hs-578T 41 µM | IGROV-1 21.1 µM | K562 23.7 µM | M14 17.4 µM | MCF7 14.3 µM | MDA-MB-231 21.8 µM | MDA-MB-435 17.4 µM | MDA-N 15.5 µM | MOLT-4 15.3 µM | Malme-3M 10.6 µM | NCI-H226 22.2 µM | NCI-H23 12.7 µM | NCI-H460 15.6 µM | NCI-H522 3.9 µM | NCI/ADR-RES 16.1 µM | OVCAR-3 11.2 µM | OVCAR-4 14.3 µM | OVCAR-5 18.7 µM | OVCAR-8 21.9 µM | PC-3 15.1 µM | RPMI-8226 20.8 µM | RXF 393 17.7 µM | SF-268 15.4 µM | SF-295 7.82 µM | SF-539 18 µM | SK-MEL-28 14.3 µM | SK-MEL-2 17.9 µM | SK-MEL-5 17 µM | SK-OV-3 25.4 µM | SN12C 17 µM | SNB-19 13.8 µM | SNB-75 33.2 µM | SR 21.6 µM | SW-620 14.6 µM | T47D 25 µM | U-251 7.85 µM | UACC-257 19.3 µM | UACC-62 10.8 µM | UO-31 18 µM
16 µM: HCT-15

COC(=O)[C@@]12CCCC(=O)[C@@H]1[C@H]1CCC[C@H]12
inactive: 786-0 > 100 µM | A549 > 100 µM | ACHN > 100 µM | BT-549 > 100 µM | CAKI-1 > 100 µM | CCRF-CEM > 100 µM | COLO 205 > 100 µM | DU-145 > 100 µM | EKVX > 100 µM | HCC 2998 > 100 µM | HCT-116 > 100 µM | HOP-62 > 100 µM | HOP-92 > 100 µM | HT-29 > 100 µM | IGROV-1 > 100 µM | K562 > 100 µM | KM12 > 100 µM | LOX IMVI > 100 µM | M14 > 100 µM | MCF7 > 100 µM | MDA-MB-231 > 100 µM | MDA-MB-435 > 100 µM | MDA-N > 100 µM | MOLT-4 > 100 µM | Malme-3M > 100 µM | NCI-H226 > 100 µM | NCI-H23 > 100 µM | NCI-H460 > 100 µM | NCI-H522 > 100 µM | NCI/ADR-RES > 100 µM | OVCAR-3 > 100 µM | OVCAR-4 > 100 µM | OVCAR-5 > 100 µM | OVCAR-8 > 100 µM | PC-3 > 100 µM | RPMI-8226 > 100 µM | RXF 393 > 100 µM | SF-268 > 100 µM | SF-295 > 100 µM | SF-539 > 100 µM | SK-MEL-28 > 100 µM | SK-MEL-2 > 100 µM | SK-MEL-5 > 100 µM | SK-OV-3 > 100 µM | SN12C > 100 µM | SNB-19 > 100 µM | SNB-75 > 100 µM | SR > 100 µM | SW-620 > 100 µM | TK-10 > 100 µM | U-251 > 100 µM | UACC-257 > 100 µM | UACC-62 > 100 µM | UO-31 > 100 µM
> 100 µM: HCT-15
